Test results taken from US20110070575A1, “Immunomodulatory Compositions, Combinations and Methods” (Coley Pharmaceutical Group, Inc., priority 2004, published 2011).
“Also recorded” adds a separate entry of the source. Oligonucleotides are written 5' to 3', each unit as a sugar letter and its base; * is a phosphorothioate linkage, no mark a phosphodiester; rarer units and linkages stand in square brackets, end groups in braces. Plain capitals give the bases only. d = 2'-deoxy (DNA)

Target: T1, Human TLR7 (Homo sapiens, UniProt Q9NYK1)
T1 construct: expressed in transfected cells; host or cells: HEK293 (ATCC No. CRL-1573)
T1 sequence (Q9NYK1 27-1049): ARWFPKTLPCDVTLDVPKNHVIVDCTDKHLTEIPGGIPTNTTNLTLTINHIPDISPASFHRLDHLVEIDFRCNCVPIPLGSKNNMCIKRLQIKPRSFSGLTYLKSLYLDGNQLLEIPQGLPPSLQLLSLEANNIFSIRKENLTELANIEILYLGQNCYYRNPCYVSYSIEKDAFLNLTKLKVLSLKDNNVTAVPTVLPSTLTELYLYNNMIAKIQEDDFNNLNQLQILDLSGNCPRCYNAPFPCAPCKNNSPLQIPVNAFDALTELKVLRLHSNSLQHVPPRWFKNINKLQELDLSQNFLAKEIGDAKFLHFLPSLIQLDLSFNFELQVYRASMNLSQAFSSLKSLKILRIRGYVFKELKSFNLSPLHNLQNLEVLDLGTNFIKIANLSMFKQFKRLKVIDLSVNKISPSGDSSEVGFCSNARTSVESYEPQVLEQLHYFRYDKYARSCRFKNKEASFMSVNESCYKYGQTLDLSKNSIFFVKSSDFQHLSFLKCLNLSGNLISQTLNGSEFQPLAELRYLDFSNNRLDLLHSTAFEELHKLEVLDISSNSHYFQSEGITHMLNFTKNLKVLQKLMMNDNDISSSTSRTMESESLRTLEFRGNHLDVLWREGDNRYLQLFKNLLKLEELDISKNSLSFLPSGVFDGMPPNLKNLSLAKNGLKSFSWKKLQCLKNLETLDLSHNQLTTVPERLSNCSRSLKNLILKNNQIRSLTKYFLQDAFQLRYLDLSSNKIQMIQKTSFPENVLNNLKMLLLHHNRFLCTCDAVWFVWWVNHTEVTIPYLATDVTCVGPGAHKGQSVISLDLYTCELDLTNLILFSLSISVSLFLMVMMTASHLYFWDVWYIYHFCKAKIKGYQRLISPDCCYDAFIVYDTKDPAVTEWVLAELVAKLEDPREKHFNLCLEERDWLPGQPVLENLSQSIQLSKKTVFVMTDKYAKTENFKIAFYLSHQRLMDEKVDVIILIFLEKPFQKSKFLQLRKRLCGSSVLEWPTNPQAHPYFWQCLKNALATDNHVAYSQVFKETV
Assay: NFκB luciferase induction in HEK293 cells transfected with human TLR7
Format: cell-based
Settings: transfected HEK293 cell line; poly(T), poly(A) or poly(C) oligonucleotide with 3 μM IRM1; overnight
Protocol: Human TLR7 and NFκβ were transfected into human epithelial kidney 293 (HEK293, American Type Culture Collection, Manassas, Va., ATCC No. CRL-1573) cells as described in U.S. Patent Publication Nos. U82004/0014779 and US2004/0171086. The selected transfected cells were counted and resuspended to a concentration of 5×10^5 cell per mL in culture media.
Cultured media was prepared from complete DMEM media (Biosource International Inc., Camarillo, Calif.), without phenol red. Fetal bovine serum (Biosource International Inc.) was added to a final concentration of 10% (vol/vol.), sodium pyruvate (Biosource International Inc.) was added to 1 mM; L-glutamine (Biosource International Inc.) was added to 2 mM; penicillin (Biosource International Inc.) was added to 100 U/mL; streptomycin (Biosource International Inc.) was added to 100 μg/mL.
100 μL aliquots of cells were placed in the wells of a white-walled, white-bottomed 96-well plate (Corning, Inc. Corning, N.Y.). […] As a negative control, some cell aliquots were incubated without a stimulus (media control). In all cases, the cells were incubated overnight at 37° C. with 5% CO2 and 98% humidity.
After the cells incubated overnight, 100 μL volume of reconstituted LucLight Plus (Packard Instruments, Meriden, Conn.) was added to each aliquot of cells. Each well of the plate was read on a L-max luminometer (Molecular Devices, Sunnyvale, Calif.). The data is expressed as fold increase of luciferase induction in cell aliquots incubated with the indicated stimulant compared to the negative control.
HEK293 cells expressing human TLR7 were prepared as described in Example 1. […] As a negative control, some cell aliquots were incubated without a stimulus (media control).
After the cells incubated overnight, the cells were analyzed as described in Example 1. The data is expressed as fold increase of luciferase induction in cell aliquots incubated with the indicated stimulant compared to the negative control.

Substance	inhibition of smIRM-induced TLR7-mediated biological activity (fold increase of luciferase induction)
poly(A): 18-mer poly(A) oligonucleotide, 5′-AAAAAAAAAAAAAAAAAA-3′ (dA*dA*dA*dA*dA*dA*dA*dA*dA*dA*dA*dA*dA*dA*dA*dA*dA*dA)	inhibition; also recorded: capable of limiting TLR7-mediated biological activity
poly(T): 18-mer poly(T) oligonucleotide, 5′-TTTTTTTTTTTTTTTTTT-3′	inhibition; also recorded: capable of limiting TLR7-mediated biological activity
